Test results taken from the METLIN SMRT retention time set (Domingo-Almenara et al. 2019).

Experiment: gradient 5% acetonitrile 3 min, to 50% in 2 min, to 85% in 15 min, held 3 min, 100 µL/min
Conditions: column: Zorbax Extend-C18 2.1 x 50 mm; eluents: water / acetonitrile, 0.1% formic acid
How it was run: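 Each retention time is based on an adduct peak selected computationally and verified by manual inspection. Measurements used HPLC–quadrupole time-of-flight mass spectrometry in positive and negative ionization mode on mixtures of ~100 pure standards. Chromatography ran on a Zorbax Extend-C18 column (2.1 × 50 mm, 1.8 μm) at 100 μL/min with water and acetonitrile, each containing 0.1% formic acid, and dead and dwell volumes of 40 μL and 900 μL.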

| SMILES | RP-LC retention time |
| --- | --- |
| CCOc1cccc2sc(N(CCCN(C)C)C(=O)CN3C(=O)CCC3=O)nc12 | 559 s |
| COc1ccc(-c2nc(C)cc(C)c2CNS(=O)(=O)c2cccc(C)c2)cc1 | 668 s |
| Cc1ccccc1Sc1nccnc1SCC(=O)N1CCN(c2ccccn2)CC1 | 715 s |
| O=C(C1=NN(Cc2ccccc2)c2ccc(Cl)cc2S1(=O)=O)N1CCOCC1 | 824 s |
| CN1C(=O)c2ccccc2Oc2ccc(C(=O)N3CCCCC3)cc21 | 807 s |
| Cc1ccc(-n2c(=O)c3sccc3n(Cc3nc(-c4cccc(Br)c4)no3)c2=O)cc1 | 1110 s |
| COc1ccc(C)cc1NC(=O)Nc1c(-c2ccc(F)cc2)nc2ccccn12 | 714 s |
| OCCN(Cc1ccccc1)CC(O)COc1ccc(Cl)cc1Cl (centres undefined) | 602 s |
| O=S(=O)(Nc1cccnc1)c1cc(-c2nnc(-c3ccccc3)o2)ccc1F | 744 s |
| Cc1ccc(CN2C(=O)NC3(CCN(C(=O)c4ccsc4)CC3)C2=O)cc1 | 778 s |
| O=S(=O)(NCCc1csc(-c2cccc(F)c2)n1)c1ccccc1Cl | 989 s |
| O=C(NC1CCCCC1NC(=O)c1cccs1)c1cccs1 (centres undefined) | 728 s |
| CCOc1ccc(/C=C/c2nc(C#N)c(NCCN(C)C)o2)cc1 | 668 s |
| COc1ccc(CN2CCOC2=O)cc1OC | 649 s |
| O=C(Cc1cccn1-c1ccc(Cl)cc1)NC1CCCC1 | 945 s |
| CC1(C(=O)NC2CCCCCC2)CN(S(C)(=O)=O)CC(=O)N1Cc1ccc(Cl)cc1 (centres undefined) | 946 s |
| O=C(Cn1cnc2nc(N3CCC(C(=O)NC4CC4)CC3)sc2c1=O)Nc1cccc(Cl)c1 | 679 s |
| COc1ccc(CC(=O)N2CCN(c3cc(C)n4c(C)nnc4n3)CC2)cc1Cl | 614 s |
| CC(=O)NCc1nc2ccccc2n1CC(=O)Nc1ccccc1C | 617 s |
| CC(C)CN1C(=O)CCc2cc(NS(=O)(=O)c3cccc(F)c3)ccc21 | 898 s |
| CCn1c(C)c(CN2CCC(C(=O)NCc3ccccc3C)CC2)c2ccccc21 | 742 s |

| SMILES | RP-LC retention time |
| --- | --- |
| CN1[C@H]2C[C@H](OC(=O)[C@H](CO)c3ccccc3)C[C@@H]1[C@@H](O)C2 | 596 s |
| Cc1ccc(-c2noc(-c3cccc(S(=O)(=O)NCCCN4CCCCCC4)c3)n2)cc1 | 832 s |
| COc1ccc(C2(C(=O)N3C[C@H]4C[C@H](C3)[C@H]3CCCC(=O)N3C4)CC2)cc1 | 679 s |
| COc1ccc2[nH]cc(CCN3CC(C(=O)Nc4ccccc4)CC3=O)c2c1 (centres undefined) | 748 s |
| COCCn1cc2c3c(cccc31)CN(C(=O)Nc1cc(Cl)ccc1C)CC2 | 679 s |
| O=C(NCCc1ccc(Cl)cc1)C(=O)c1ccc[nH]1 | 878 s |
| COc1ccc(S(=O)(=O)CCc2noc(C(=O)NCc3cc(OC)c(OC)c(OC)c3)n2)cc1 | 790 s |
| O=C(Cn1nc2c(Oc3ccccc3)nccn2c1=O)Nc1ccc(Br)cc1F | 898 s |
| Cc1nnc(N2CCC(C(=O)NCC3CCCO3)CC2)c2nn(-c3ccccc3)c(C)c12 (centres undefined) | 632 s |
| COCCN1CCn2cc(S(=O)(=O)Nc3cc(C)cc(C)c3)cc2C1=O | 745 s |
| COc1ccc(-n2nc(SCC(=O)Nc3ccc(Cl)cc3)ccc2=O)cc1 | 629 s |
| O=C(Nc1nccs1)C1CCN(C(=O)C2COc3ccccc3O2)CC1 (centres undefined) | 716 s |
| COc1ccc(CNC(=O)C2CCCN(c3cc(=O)n(C)c(=O)n3C)C2)cc1 (centres undefined) | 663 s |
| COC(=O)c1ccc(COc2cc(O)c3c(=O)cc(-c4ccccc4)oc3c2)cc1 | 1290 s |
| O=C1CC(C(=O)N2CCc3ccccc32)CN1CCc1c[nH]c2ccc(Cl)cc12 (centres undefined) | 880 s |
| Cc1noc(C)c1-c1ccc(S(=O)(=O)N2CCc3ccccc3C2)cc1 | 1050 s |
| COc1ccc(CN2C(=O)COC[C@H]2C(=O)NC2CC2)c(OC)c1 | 643 s |
| CCCn1c(-c2cccc(C(=O)NCc3cccc(C(F)(F)F)c3)c2)nc2cccnc21 | 936 s |
| CC(C)c1ccc(S(=O)(=O)N2CCC(c3ccncc3)CC2)cc1 | 749 s |
| COc1ccc(-c2cc(C(=O)NCC(c3ccco3)N(C)C)no2)cc1 (centres undefined) | 661 s |
| O=C(NCc1ccc(F)cc1Cl)c1cn2c(n1)CCCC2 | 607 s |

The next lines start with the values.

| RP-LC retention time | SMILES |
| --- | --- |
| 639 s | COc1cc(NS(=O)(=O)c2cc3n(c2)CCCNC3=O)cc(OC)c1 |
| 833 s | Cn1cc(S(=O)(=O)N2CCCCC2)cc1C(=O)N1CCCCC1 |
| 605 s | CO[C@H]1CN(C2CCN(S(=O)(=O)c3cccc4cccnc34)CC2)[C@H]1c1cccnc1 |
| 573 s | CCN(CCNC(=O)c1cc2c(s1)CN(C(C)C)C2)c1cccc(C)c1 |
| 759 s | O=[N+]([O-])c1ccc(CSc2ncnc3c2ncn3[C@@H]2O[C@H](CO)[C@H](O)C2O)cc1 (some centres undefined) |
| 1020 s | CC1CCN(C(=O)C2=NN(C(C)C)c3cc(Cl)ccc3S2(=O)=O)CC1 |
| 601 s | COc1cccc(CN2CCC(N3C(=O)C4(CCCCC4)C3c3ccncc3)CC2)c1OC (centres undefined) |
| 632 s | O=C(c1noc2c1CCCCC2)N1CCN(c2ccccn2)CC1 |
| 643 s | O=C(C1CC=CC1)N1CCC2(CC1)NCCc1c2[nH]c2ccccc12 |
| 729 s | Cc1ccc(NS(=O)(=O)c2cc(-c3[nH]ncc3C(=O)N(C)C)oc2C)cc1C |
| 835 s | Cc1csc(-c2cc(S(=O)(=O)NCc3ccc4c(c3)OCO4)cn2CC(=O)N2CCCC2)n1 |
| 715 s | O=C1COc2ccc(-c3csc(NC(=O)C4CCCO4)n3)cc2N1 (centres undefined) |
| 991 s | Cc1cc(N2CCCCC2C)n2nc(-c3ccccc3C)nc2n1 (centres undefined) |
| 956 s | Cc1ccc(NC(=O)C(C)Oc2ccc(F)cc2)cc1C (centres undefined) |
| 938 s | COc1ccc(Cl)cc1NC(=O)Cn1c(=O)n(-c2ccc(F)cc2)c(=O)c2c1cc(C)n2C |
| 713 s | COc1cccc(CNC(=O)C2CCN(S(=O)(=O)c3ccc4c(c3)CCCC(=O)N4)CC2)c1 |
| 642 s | COCc1cn(C2CN(C(=O)COc3ccccc3)C2)nn1 |
| 646 s | Cc1cnc(C2CCOCC2)n1C1CCCN(S(=O)(=O)Cc2ccccc2)C1 (centres undefined) |
| 849 s | COC(=O)C1=CN(c2cccc(C)c2)c2ccccc2S1(=O)=O |
| 892 s | O=C(NCC(=O)N1CCCc2ccccc21)c1ccc(Br)cc1 |
| 976 s | CCc1ccc(C2=C(C)C(N3CCCN(C(=O)C4CCCCC4)CC3)=NS2(=O)=O)cc1 |
| 643 s | Cc1cccc(NC(=O)N2CCCC2C(=O)N(C)C)c1 (centres undefined) |
| 961 s | Cc1ccc(-c2noc(C3CCCN3C(=O)c3cncc(Br)c3)n2)cc1 (centres undefined) |
| 806 s | Cn1c(=O)c2nc(SCCC(=O)Nc3ccc(Br)cc3F)n(C)c2n(C)c1=O |

| RP-LC retention time | SMILES |
| --- | --- |
| 672 s | O=C(c1cc(-c2ccncc2)n[nH]1)N1CCC(C(=O)N2CCN(c3ccc(Cl)cc3)CC2)CC1 |
| 832 s | O=C(Nc1ccc2c(c1)OCCO2)c1cn(-c2cc(N3CCSCC3)ncn2)cn1 |
| 808 s | CCn1ccc2sc(C)c(C(=O)N3CCN(c4ccc(F)cc4)CC3)c2c1=O |
| 997 s | O=C(Nc1ccccc1)N1CCc2nc(-c3ccc(Cl)cc3)ncc2C1 |
| 880 s | O=C(NCCc1ccccc1)c1cn2c3c(ccc(Cl)c3c1=O)OCC2 |
| 998 s | COCC(=O)N1CCc2c([nH]c3ccccc23)C1c1ccc(SC)cc1 (centres undefined) |
| 787 s | O=C(CSc1nnc2c3cc(-c4ccc(F)cc4)nn3ccn12)NCc1ccco1 |
| 902 s | O=C1NC2(CCN(C(=O)Nc3cccc(C(F)(F)F)c3)CC2)N=C1c1ccccc1 |
| 561 s | CCC1CCCCN1CCCNC(=O)C1CCN(c2ccc(N3CCCCC3)nn2)CC1 (centres undefined) |
| 593 s | COCc1cc(=O)n(CC(=O)Nc2ccc(F)cc2C)c(N)n1 |
| 989 s | O=C(Cn1nc2c3cc(-c4ccc(F)cc4)nn3ccn2c1=O)Nc1ccc(Br)cc1F |
| 901 s | Cc1ccc(C(=O)N2CCC3(CC2)N=C(c2ccc(Cl)cc2)NO3)s1 |
| 974 s | Cc1ccc(-n2ccc(=O)c(-c3nc(-c4cccc(C)c4)no3)n2)cc1 |
| 943 s | Cc1noc(-c2ccc(OC3CN(S(=O)(=O)c4c(C)noc4C)C3)cc2)n1 |
| 780 s | O=C(Cc1ccc(F)cc1)NC(c1ccccc1)c1nnc(N2CCCC2)o1 (centres undefined) |
| 701 s | CCCc1noc(-c2cccnc2N2CCCN(Cc3ccccc3F)CC2)n1 |
| 682 s | Cc1nnc(NC(=O)CCc2csc(NC(=O)NC3CCCCC3)n2)s1 |
| 688 s | NC(=O)c1cc(N2CCOCC2)nc2ccc(F)cc12 |
| 931 s | O=C(NCc1c(F)cccc1Cl)C(=O)c1c[nH]c2ccccc12 |
| 861 s | COc1ccc(-n2cc(C(=O)OCc3cc(=O)n4ccccc4n3)c3ccccc3c2=O)cc1 |
| 1070 s | c1ccc(-c2noc(N3CCCCC3)n2)cc1 |
| 889 s | CCCCN1N=C(C(=O)N2CCOCC2)S(=O)(=O)c2ccc(Cl)cc21 |
| 866 s | OC(COc1ccc(Cl)cc1)CN1CCN(c2cccc(Cl)c2)CC1 (centres undefined) |
